The values that follow come from article PMC10380385, “Synthesis, In Vitro, and In Vivo Investigations of Pterostilbene-Tethered Analogues as Anti-Breast Cancer Candidates” (International Journal of Molecular Sciences, 2023).

Where “and” joins values, the source holds several entries; their conditions need not be identical. Equal values may be shown once.

In test [1] the test system is MCF-7 cells. The experiment in a line: MTT anti-proliferative assay, MCF-7. It counts as cell-based. The settings on record: Homo sapiens, MCF7, 48 h. On the procedure:
(§1) The in vitro anti-proliferative activity of all synthesized analogues against MDA-MB-231 and MCF-7 cells was tested using the 3-(4,5-dimethylthiazol-2-yl)-[…] (MTT) method. […] Usually, Dox has been used as a positive control in many basic studies, especially drug screening assay. […] In the meantime, the cytotoxic activity of 2K–2N, PTE, and Dox against MCF-10A (human breast epithelial cell line) was examined. […] By contrast, the substitution of a saturated six-membered nitrogen heterocyclic ring on the side chain is extremely favorable for enhancing anti-BC efficacy (2L–2N vs. 1, PTE, 2A–2J). Based on the preceding analysis, analogue 2L was selected as the most promising anti-BC agent and used in the follow-up study.
(§2) The human breast cancer cell lines MDA-MB-231 and MCF-7 were purchased from the Chinese Academy of Science and cultured in Dulbecco’s modified Eagle’s medium (DMEM, Gibco, New York, NY, USA) containing 10% fetal bovine serum (FBS), 2 mM L-glutamine, 100 U/mL penicillin, and 100 μg/mL streptomycin. Then, the cells were maintained in a humidified incubator at 37 °C in the presence of 5% CO2.
(§3) The MTT assay was used to test the effect of PTEs on cell viability. The MDA-MB-231 (3 × 10^3 cells/well) and MCF-7 (4 × 10^3 cells/well) cells were seeded in a 96-well plate and cultured at 37 °C in a 5% CO2 incubator overnight. Afterwards, the medium was replaced with different concentrations of the title compounds (1, 3, 10, 30, and 100 μM). After incubation for 48 h, 10 μL of MTT solution (5 mg/mL) was added to each well and incubated for another 4 h. The optical density (OD) of the samples was measured using a microplate reader (Biotek, Burlington, VT, USA) at 570 nm. The inhibition rate (%) = [A570 (control) − A570 (compound)]/A570 (control) × 100%. The IC50 values were calculated using SPSS software version 17.0 (SPSS Inc., Chicago, IL, USA).
(Formazan colour is commonly taken as a measure of viable cells.)

Test [2] has as its system MCF-7 cells. The experiment in a line: Intracellular ROS, DCFH-DA, MCF-7. The conditions noted are these: MCF-7, 2L 24 h, vs control. The format is cell-based, human. Here is the method:
(§4) The Reactive Oxygen Species Assay Kit was used to measure intracellular ROS levels. MDA-MB-231 and MCF-7 cells (6 × 10^4 cells/well) were seeded onto 24-well plates and treated with 2L (0, 10 μM) for 24 h. Subsequently, the cells were washed with PBS and stained with dichlorodihydrofluorescein diacetate (DCFH-DA, 10 μM) at 37 °C for 20 min in the dark. Following three washes with serum-free DMEM, the fluorescence alteration was photographed using a fluorescence microscope.
(§5) MDA-MB-231 and MCF-7 cells were plated in 6-well plates with a density of 3 × 10^5 cells/well. After exposure to 2L for 24 h, the cells were incubated with 10 μM DCFH-DA at 37 °C for 20 min in the dark. Later, the cells were slightly washed three times with serum-free DMEM and centrifuged (1000 rpm, 5 min). The collected cells were resuspended in PBS and loaded into a flow cytometer.

In test [3] the test system is MCF-7 cells. The experiment in a line: Mitochondrial membrane potential JC-1 assay, MCF-7. The format is cell-based, human. The settings on record: MCF-7, 24 h, flow cytometry. On the procedure:
(§6) The MMP was assayed using a JC-1 assay kit (Beyotime, Shanghai, China) according to the manufacturer’s instructions. In brief, MDA-MB-231 and MCF-7 cells were plated in 24-well plates at a density of 6 × 10^4 cells per well. After intervention with 2L (0, 10 μM) for 24 h, the cells were washed once with PBS. Cell culture solution (0.5 mL) and JC-1 working solution (0.5 mL) were successively added, mixed well, and incubated at 37 °C for 20 min in the dark. After washing twice with 1 × JC-1 staining buffer, the cells were resuspended in fresh culture medium. The graphical results were observed under a fluorescence microscope.
(§7) MDA-MB-231 and MCF-7 cells were incubated in 6-well plates at a density of 3 × 10^5 cells per dish and exposed to 2L for 24 h. Cell culture media (1 mL) and JC-1 staining working solution (1 mL) were added, thoroughly mixed, and incubated at 37 °C for 20 min. After washing twice with 1 × JC-1 staining buffer, the cells were collected and resuspended in 500 μL JC-1 staining buffer and then instantly analyzed using a flow cytometry.
In general terms: Flow cytometry measures light scatter and fluorescence of single cells or particles in a stream.

Test [4] deals with MDA-MB-231 cells. Nature of the test: MTT anti-proliferative assay, MDA-MB-231. The format is cell-based. The settings on record: Homo sapiens, 48 h. On the procedure: as §1, §2, §3
Test [5] has as its system MDA-MB-231 cells. Nature of the test: Mitochondrial membrane potential JC-1 assay, MDA-MB-231. It counts as cell-based, human. The conditions noted are these: MDA-MB-231, 24 h, flow cytometry. On the procedure: as §6, §7
In test [6] the test system is MDA-MB-231 cells. The experiment in a line: Intracellular ROS, DCFH-DA, MDA-MB-231. The format is cell-based, human. The conditions noted are these: MDA-MB-231, 2L 24 h, vs control. Here is the method: as §4, §5
For test [7], the system named is MCF-10A (human breast epithelial cell line). Nature of the test: Cytotoxic activity against MCF-10A. The settings on record: cytotoxicity, normal breast epithelial cells. The format is cell-based. On the procedure:
as §1

The test system of test [8] is MDA-MB-231 cells. Nature of the test: Annexin V-FITC/PI apoptosis flow cytometry, MDA-MB-231. It counts as cell-based, human. On the procedure:
MDA-MB-231 and MCF-7 cells (3 × 10^5 cells/well) were seeded into 6-well plates. After that, the cells were treated with 2L (0, 10 μM) for 24 h. Cells were harvested, washed repeatedly with cold phosphate-buffered saline (PBS), and resuspended in 195 μL of binding buffer. Then, 4 μL annexin V-FITC reagent (Beyotime) and 8 μL propidium iodide (PI, Beyotime) were added to the samples and gently mixed. After incubation for 15 min in the dark at room temperature, the stained cells were immediately detected by a FACScan flow cytometer (BD Biosciences, San Jose, CA, USA) and analyzed with the annexin V-FITC/PI apoptosis method.

The IC50 is the midpoint of a concentration-inhibition curve. Low values mean greater potency, high ones weaker potency. For the molecule `COc1cc(/C=C/c2ccc(OCCCN3CCCCC3)cc2)cc(OC)c1` [Compound 2L, (E)-1-(3-(4-(3,5-dimethoxystyryl)phenoxy)propyl)piperidine], the IC50 turned out to be 11.7 ± 0.55 µM with MCF-7 cells [1], 10.4 ± 0.4 µM in the test with MDA-MB-231 cells [4] and 68.9 ± 0.93 µM in test [7]. Further, the “mean ROS-associated fluorescence intensity” value in the test with MCF-7 cells [2] and with MDA-MB-231 cells [6] was “greatly increased” throughout. For the same molecule, the “ΔΨm level after 2L” value is 85.0% in the test with MCF-7 cells [3] and 83.9% in the test with MDA-MB-231 cells [5]. In addition, the “apoptosis ratio with NAC” value in the test with MDA-MB-231 cells [8] (MDA-MB-231, 2L 10 μM + 5 mM NAC) worked out at 8.8%. Besides, in the test with MDA-MB-231 cells [8] (MDA-MB-231, 2L 10 μM + Z-VAD-FMK 20 μM), the “apoptosis ratio with Z-VAD-FMK” value was 6.2%. The “apoptotic percentage (early and late)” value in the test with MDA-MB-231 cells [8] (MDA-MB-231, 2L 10 μM, 24 h) is 12.7% and 16.1% and 13.1%.
